# Assay results taken from patent US20130184338A1, “PHENYLPROPYL CARBAMATE DERIVATIVES FOR USE IN PREVENTING OR TREATING MULTIPLE SCLEROSIS” (Bio-Pharm Solutions Co., Ltd., priority 2011, published 2013).
# “And” between values parts separate entries of the source, which are not always exact repeats. Identical values can stand only once. “Also recorded” adds a separate entry of the source. Like-named read-outs stand apart in the source and are kept apart here.
# Key:
# [1] = system: male mice (ICR); experiment: Muscle relaxation: wire hang; format: in vivo; settings: Mus musculus; intraperitoneal, at time of maximum effect; 50% of activity vs vehicle only; read-out: MR test ED50, IV = Wire hang
# Description: (§1) For testing, male mice (ICR) were purchased from ORIENT BIO INC. (Korea), divided into several groups with 6 mice in each group, and were adapted for 4-5 days. The mice having the weight ranging from 19 g to 26 g were employed for the test. The pharmacological effect of the test compounds on muscle relaxation was evaluated by Rotarod test, grip strength test, and muscular force (wire hang) test. All mice were adapted to the test environment at one hour before starting the tests. The pharmacological effects of all the test compounds were evaluated by administration through peritoneal cavity of the mice (10 ul/g, bw).
# This experimentation was conducted using a metal wire of 30 cm in length, which was suspended between two pillars at a height of about 40 cm from the bottom covered with a soft pad. […] Each mouse was made to grip the wire using two forelimbs, and the elapse time before the mouse fell off from the wire to the pad on the bottom was recorded in seconds. Each mouse was given 5 opportunities for this test at an interval of 2 minutes period. The highest 3 records among the test opportunities were selected and the mean value was used as the test result. This experimentation was conducted according to the method described in the reference, ‘Jacqueline N. Crawley (1999) Behavioral phenotyping of transgenic and knockout mice: experimental design and evaluation of general health, sensory functions, motor abilities, and specific behavioral tests. Brain Res. 835: 18-26’.
# (§2) The results of muscle relaxation activity of the phenyl carbamate compounds measured in above Experimental Examples 11.2 to 11.5 are shown in following Table 5.
# [2] = system: MOG EAE rat; experiment: Anti-multiple sclerosis activity by MOG EAE rat
# [3] = system: male mice (ICR); experiment: Muscle relaxation: grip strength; format: in vivo; settings: Mus musculus, ip; intraperitoneal, at time of maximum effect; 50% of activity vs vehicle only; read-out: MR test ED50, III = Grip strength
# Description: as §1
# A grip strength test using the test animals' forelimbs was performed using an instrument equipped with triangle ring and designed so as to easily grip with the forelimbs of experimental animals, manufactured from Ugo Basile Inc. (Ugo Basile, Model47106, Italy). The test was conducted before and after administration of the compounds to evaluate the effects thereof. […] The mouse was made to grip the rod with its forelimbs, and its tail was pulled, where the force at which the mouse detached from the rod was recorded. The instrument indicated the force in grams. All of the mice were given […] for test, and the 3 highest values among the test opportunities were selected and the mean value was used as the test result. This experimentation was conducted according to the method described in the reference, ‘Nevins et al. (1993) Quantitative grip strength assessment as a means of evaluating muscle relaxation in mice. Psychopharmacol. 110: 92-96’.
# as §2
# [4] = system: male mice (ICR); experiment: Muscle relaxation: residence time on rotarod rotating at fixed speed (15 r.p.m.); format: in vivo; settings: Mus musculus, ip; intraperitoneal, at time of maximum effect; 50% of activity vs vehicle only; read-out: MR test ED50, II = Fixed 15 r.p.m. Rotarod
# [5] = system: male mice (ICR); experiment: Muscle relaxation: endurance time on rotarod rotating at accelerated speed; format: in vivo; settings: Mus musculus, ip; intraperitoneal, at time of maximum effect; 50% of activity vs vehicle only; read-out: MR test ED50, I = Acc. Rotarod
# Description: as §1
# At 24 hours before testing, the mice to be tested were preliminarily trained for 5 minutes on a rod rotating at the rate of 6 revolutions per a minute. The pharmacological effect on muscle relaxation of the test compounds were evaluated by observing the mice on a rod for 5 minutes, where the rod was accelerated from 4 to 40 revolutions per a minute during the test time. The endurance time that each mouse endures on the acceleratedly rotated rod without falling off from the rod was recorded. As test time for evaluation, a maximum of 5 minutes was applied. […] This experimentation was conducted according to the method described in the reference, ‘Monville et al. (2006) Comparison of incremental and accelerating protocol of the rotarod test for the assessment of motor deficits in the 6-OHDA model. J. Neurosci. Meth. 158: 219-223’.
# as §2
# [6] = system: male SD rats; experiment: MES (Maximal Electroshock Seizure) test in rats; settings: for ED50: Rattus norvegicus, po, read-out: Duration of MES test ED50
# [7] = system: male ICR mice; experiment: MES (Maximal Electroshock Seizure) test in mice
compound,measurement,setting,value
"C[C@H](OC(N)=O)[C@@H](O)c1ccccc1Cl [Compound 1, 1-(2-chlorophenyl)-(S)-1-hydroxypropyl-(S)-2-carbamate]",ED50,[1],13.3 mg/kg
same,body weight gain vs vehicle group,"[2]; 3, 10 and 50 mg/kg p.o. twice a day, days 0-30, p>0.05",gained weight similarly than vehicle group
same,Disease incidence,"[2]; all groups (3, 10, 50 mg/kg p.o. twice a day, days 0-29)",100%
same,mortality,"[2]; rat, in vivo",0.0% and 5.0%
same,CD68 immunoreactivity (% of white matter area) vs vehicle,"[2]; spinal cord C segment, 50 mg/kg, day 30, p<0.05, 50 mg/kg",significantly smaller than in vehicle group; also recorded: reduced immunoreactivity
same,CD68 immunoreactivity (% of white matter area) vs vehicle,"[2]; spinal cord T segment, all doses, day 30",significantly less immunoreactivity; also recorded: significantly reduced immunoreactivity
same,CD68 immunoreactivity (% of white matter area) vs vehicle,"[2]; spinal cord combined C+T segments, all doses, day 30",significantly less immunoreactivity; also recorded: significantly reduced immunoreactivity
same,demyelination area (% of white matter area) vs vehicle,"[2]; spinal cord, all doses (3, 10, 50 mg/kg), all segments, day 30, MBP staining",significantly less demyelination than vehicle treated animals; also recorded: significantly diminished demyelinated lesion volumes
same,ED50,[3],40.9 mg/kg
same,ED50,[4],23.3 mg/kg
same,ED50,[5],39.7 mg/kg
same,ED50,[6]; 0.5 h,5.9 mg/kg
same,ED50,[6]; 1 h,3.3 mg/kg
same,ED50,[6]; 2 h,1.4 mg/kg
same,ED50,[6]; 4 h,6.9 mg/kg
same,ED50,[6]; 12 h,36.1 mg/kg
same,efficacy duration time (MES),"[6]; rats, oral",at least 12 hours
same,ED50,"[7]; Mus musculus, po, 0.25 h, read-out: Duration of MES test ED50",21.2 mg/kg
same,ED50,"[7]; Mus musculus, po, 0.5 h, read-out: Duration of MES test ED50",22.5 mg/kg
same,ED50,"[7]; Mus musculus, po, 1 h, read-out: Duration of MES test ED50",13.3 mg/kg
same,ED50,"[7]; Mus musculus, po, 2 h, read-out: Duration of MES test ED50",13 mg/kg
same,ED50,"[7]; Mus musculus, po, 3 h, read-out: Duration of MES test ED50",14.7 mg/kg
same,ED50,"[7]; Mus musculus, po, 4 h, read-out: Duration of MES test ED50",18.7 mg/kg
same,ED50,"[7]; Mus musculus, po, 6 h, read-out: Duration of MES test ED50",30 mg/kg
same,ED50,"[7]; Mus musculus, po, 8 h, read-out: Duration of MES test ED50",49.4 mg/kg
same,ED50,"[7]; Mus musculus, po, 12 h, read-out: Duration of MES test ED50",119 mg/kg
same,ED50,"[7]; Mus musculus, po, read-out: MES test (po) ED50",13 mg/kg
same,efficacy duration time (MES),"[7]; mice, oral",at least 12 hours
"C[C@H](OC(=O)NC1CC1)[C@@H](O)c1ccccc1Cl [Compound 18, 1-(2-chlorophenyl)-(S)-1-hydroxypropyl-(R)-2-N-cyclopropylcarbamate]",ED50,[1],29.5 mg/kg
same,ED50,[3],87.4 mg/kg
same,ED50,[4],61.2 mg/kg
same,ED50,[5],59.2 mg/kg
same,responders at 200 mg/kg,"[7]; Mus musculus, po, read-out: MES test (po) Protection %",100%
